Read-outs that look alike come from different tables or passages of the source.
What was measured:
[1] = Phase 1 and 2 metabolism; cited from earlier work
M. tuberculosis = details: cited from earlier work
InhA = details: binds preferentially to InhA:NAD+ complex; cited from earlier work
[2] = in vivo, iv
PET brain uptake = details: baboon, i.v.
MRSA = details: cited from earlier work
[3] = system: Staphylococcus aureus FabI (saFabI); details: cited from earlier work
[4] = set-up: species or system mice; details: mouse, in vivo
[5] = set-up: species or system baboon; details: in vivo

CCCCCCc1ccc(Oc2ccccc2)c(O)c1 [PT04]
route of metabolism [1]: O-glucuronidation was a primary route for metabolism

CCCCCCc1ccc(Oc2ccccc2C)c(O)c1 [PT70]
antibacterial activity in a mouse model of tuberculosis infection (M. tuberculosis): shows antibacterial activity
bacterial burden in the lungs (M. tuberculosis; infected mice, lungs): did not affect the bacterial burden
bacterial load in the spleens (M. tuberculosis; infected mice, spleens): reduced the bacterial load
residence time on the target (InhA): 24 min
ability to penetrate the blood brain barrier (BBB) [2]: able to penetrate the brain

CCCCCCc1ccc(Oc2ccccc2C#N)c(O)c1 [PT119]
ability to penetrate the blood brain barrier (BBB) (PET brain uptake; images acquired for 90 min): able to penetrate the brain
propensity to cross the BBB, qualitative comparison (PET brain uptake; qualitative): higher propensity to cross the BBB than PT70
efficacy in a mouse model of MRSA infection (MRSA): demonstrates efficacy
residence time on saFabI [3]: ~ 12.5 h

CCCCCCc1ccc(Oc2ccccc2[11CH3])c(O)c1 [[^11C]PT70]
concentration in the liver versus other peripheral organs [4]: much higher in the liver
time of highest concentration of drug after injection [4]: 20 min
elimination into the bladder ([5]; baboon): another large portion of the injected [11C]PT-70 was eliminated into the bladder
clearance from the heart, lung and blood ([5]; iv): cleared rapidly
